Data: PubChem BioAssay (NCI)
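Protocol summary: plate cells (96-well), add compound at 5 concentrations, incubate 48 h, interpolate endpoints linearly. GI50 is the concentration that inhibits growth by half. TGI marks complete inhibition of growth.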

Tests used:
Experiment in all cases: NCI tumour cell line growth inhibition, 48 h
[1] = system: A549 NSCLC
[2] = system: EKVX NSCLC
[3] = system: HOP-62 NSCLC
[4] = system: TK-10 renal
[5] = system: UO-31 renal
[6] = system: SNB-75 CNS
[7] = system: BT-549 breast
[8] = system: MCF7 breast
[9] = system: PC-3 prostate
[10] = system: T-47D breast

CC(=O)c1sc(-c2nc(C)c(C(=O)/C=C\c3ccc(/C=C\C(=O)c4sc(-c5nc(C)c(C(C)=O)s5)nc4C)cc3)s2)nc1C
TGI [1]: > 100 µM | TGI [2]: > 100 µM | TGI [3]: > 100 µM | TGI [4]: > 100 µM | TGI [5]: > 100 µM

CC1(C)O/C(=C\c2ccccc2)C(=O)/C(=C/c2ccccc2)O1
TGI [1]: > 100 µM | TGI [2]: > 100 µM | TGI [3]: > 100 µM | TGI [6]: > 100 µM | TGI [4]: > 100 µM | TGI [5]: > 100 µM

CN[C@@H](C)[C@H](NC)c1ccccc1
TGI [1]: > 100 µM | TGI [2]: > 100 µM | TGI [6]: > 100 µM | TGI [4]: > 100 µM | TGI [5]: > 100 µM

CCOC(=N)CC(=O)Nc1cccc(C)c1C
TGI [1]: > 100 µM | TGI [2]: > 100 µM | TGI [3]: > 100 µM | TGI [6]: > 100 µM | TGI [4]: > 100 µM | TGI [5]: > 100 µM

Cc1cc(NS(=O)(=O)c2ccc(Nc3c4ccccc4nc4c(C(=O)NCCN(C)C)cccc34)cc2)no1
TGI [1]: 71 µM | TGI [2]: 30.1 µM | TGI [3]: 6.57 µM | TGI [6]: 21 µM | TGI [4]: > 100 µM

Cc1cc2c(cc1Cl)SC(=Nc1ccc(Cl)cc1)N(S(=O)(=O)c1ccccc1)S2(=O)=O
GI50 [1]: 13.7 µM | TGI [1]: 32.2 µM | GI50 [7]: 11.1 µM | TGI [7]: 24.5 µM | GI50 [2]: 15.1 µM | TGI [2]: 29.3 µM | GI50 [3]: 13.5 µM | TGI [3]: 26.4 µM | GI50 [8]: 6.05 µM | TGI [8]: 22.4 µM | GI50 [9]: 10.9 µM | TGI [9]: 23.1 µM | GI50 [4]: 11.9 µM | TGI [4]: 24.6 µM | GI50 [5]: 13.5 µM | TGI [5]: 32.7 µM

COc1cccc(-n2c3nc(=O)n(C)c(=O)c-3nc3ccccc32)c1
TGI [1]: 52.2 µM | TGI [2]: 82.1 µM | TGI [3]: > 100 µM | TGI [6]: 76.2 µM | TGI [4]: > 100 µM | TGI [5]: > 100 µM

O=C(COc1ccc(/C=C2\CSc3ccccc3C2=O)cc1)Nc1nccs1
GI50 [1]: 15.3 µM | TGI [1]: 28.5 µM | GI50 [2]: 17.3 µM | TGI [2]: 31.1 µM | GI50 [3]: 16.3 µM | TGI [3]: 30.8 µM | GI50 [8]: 3.43 µM | TGI [8]: 10.6 µM | GI50 [9]: 3.97 µM | TGI [9]: 28.9 µM | GI50 [6]: 11.5 µM | TGI [6]: 25.1 µM | GI50 [10]: 13.5 µM | TGI [10]: 42.4 µM | GI50 [4]: 10.6 µM | TGI [4]: 27.7 µM | GI50 [5]: 2.24 µM | TGI [5]: 6.73 µM

COc1ccc(C2c3cc(OC)c(OC)cc3C(Cc3ccc([N+](=O)[O-])cc3)C2c2ccc([N+](=O)[O-])cc2)cc1OC (centres undefined)
TGI [1]: > 100 µM | TGI [2]: > 100 µM | TGI [3]: > 100 µM | TGI [6]: > 100 µM | TGI [4]: > 100 µM | TGI [5]: > 100 µM

Nc1ccn(C2(CO)C=C(CO)C(O)C2O)c(=O)n1 (centres undefined)
TGI [1]: > 25.8 µM | TGI [2]: > 25.8 µM | TGI [3]: > 25.8 µM | TGI [6]: > 25.8 µM | TGI [4]: > 25.8 µM | TGI [5]: > 25.8 µM

COC(=O)/C(C)=C/[N+](=O)[O-]
TGI [1]: 44.1 µM | TGI [2]: 63.6 µM | TGI [3]: 57.9 µM | TGI [6]: 30.1 µM | TGI [4]: 31.1 µM | TGI [5]: 33.3 µM

O=S1OC2(c3ccccc3-c3ccccc32)c2ccccc21 (centres undefined)
TGI [1]: > 100 µM | TGI [2]: > 100 µM | TGI [3]: > 100 µM | TGI [6]: > 100 µM | TGI [4]: > 100 µM | TGI [5]: > 100 µM

C1C[OH+]CCNCC[OH+]CC[OH+]CCN1.[Cl-].[Pt+4]
GI50 [1]: > 100 µM | TGI [1]: > 100 µM | GI50 [3]: > 100 µM | TGI [3]: > 100 µM | GI50 [6]: > 100 µM | TGI [6]: > 100 µM | GI50 [4]: > 100 µM | TGI [4]: > 100 µM | GI50 [5]: > 100 µM | TGI [5]: > 100 µM

C=C1C(=O)O[C@H]2/C=C(/C)C3=CC(=O)[C@@](C)(C[C@@H](OC(=O)/C(C)=C\C)C12)O3 (some centres undefined)
TGI [1]: 17.8 µM | TGI [7]: 3.11 µM | TGI [2]: 6.23 µM | TGI [3]: > 100 µM | TGI [9]: 8.78 µM | TGI [6]: 23.9 µM | TGI [4]: 1.6 µM | TGI [5]: 3.56 µM

CN(CCCNC(=O)Cc1ccc2ccc3cccc4ccc1c2c34)CCCNc1cc(-c2ccc3ccccc3c2)nc2ccccc12
GI50 [1]: 1.83 µM | TGI [1]: 3.75 µM | GI50 [3]: 1.71 µM | TGI [3]: 3.26 µM | GI50 [8]: 0.587 µM | TGI [8]: 2.08 µM | GI50 [9]: 1.49 µM | TGI [9]: 3.22 µM | GI50 [6]: 1.45 µM | TGI [6]: 2.75 µM | GI50 [10]: 2.04 µM | TGI [10]: 4.19 µM | GI50 [4]: 1.47 µM | TGI [4]: 3.02 µM | GI50 [5]: 1.4 µM | TGI [5]: 3.15 µM

CCCCOC(=O)NC(=O)c1cn(CCCOC(=O)NCCCCCCNC(=O)OCCCn2cc(C(=O)NC(=O)OCCCC)c(=O)[nH]c2=O)c(=O)[nH]c1=O
TGI [1]: > 100 µM | TGI [2]: > 100 µM | TGI [3]: > 100 µM | TGI [6]: > 100 µM | TGI [4]: > 100 µM | TGI [5]: > 100 µM

CCC(C)(C)c1ccc(OCCCCCCN2CCNCC2)cc1
GI50 [1]: 3.77 µM | TGI [1]: 13.7 µM | GI50 [2]: 9.73 µM | TGI [2]: 27.1 µM | GI50 [3]: 2.32 µM | TGI [3]: 6.09 µM | GI50 [8]: 1.56 µM | TGI [8]: 3.2 µM | GI50 [9]: 2.6 µM | TGI [9]: 13.8 µM | GI50 [6]: 1.46 µM | TGI [6]: 3.51 µM | GI50 [10]: 1.72 µM | TGI [10]: 3.78 µM | GI50 [4]: 1.8 µM | TGI [4]: 3.46 µM | GI50 [5]: 1.93 µM | TGI [5]: 4.8 µM
